Experimental data published in ChEMBL document CHEMBL4507319 (2021).
Active and inactive are the calls of the source. No cut-off for these calls is given here.

Tests used:
[1] = target: Macrophage-stimulating protein receptor (Homo sapiens) (UniProt Q04912); test: Ron(h) Eurofins kinase panel; conditions: Compound concentration 1.0 uM
[2] = target: T1, Tyrosine-protein kinase JAK3 (Homo sapiens) (UniProt P52333); test: JAK3(h) Eurofins kinase panel; conditions: Compound concentration 1.0 uM
T1 sequence (whole entry): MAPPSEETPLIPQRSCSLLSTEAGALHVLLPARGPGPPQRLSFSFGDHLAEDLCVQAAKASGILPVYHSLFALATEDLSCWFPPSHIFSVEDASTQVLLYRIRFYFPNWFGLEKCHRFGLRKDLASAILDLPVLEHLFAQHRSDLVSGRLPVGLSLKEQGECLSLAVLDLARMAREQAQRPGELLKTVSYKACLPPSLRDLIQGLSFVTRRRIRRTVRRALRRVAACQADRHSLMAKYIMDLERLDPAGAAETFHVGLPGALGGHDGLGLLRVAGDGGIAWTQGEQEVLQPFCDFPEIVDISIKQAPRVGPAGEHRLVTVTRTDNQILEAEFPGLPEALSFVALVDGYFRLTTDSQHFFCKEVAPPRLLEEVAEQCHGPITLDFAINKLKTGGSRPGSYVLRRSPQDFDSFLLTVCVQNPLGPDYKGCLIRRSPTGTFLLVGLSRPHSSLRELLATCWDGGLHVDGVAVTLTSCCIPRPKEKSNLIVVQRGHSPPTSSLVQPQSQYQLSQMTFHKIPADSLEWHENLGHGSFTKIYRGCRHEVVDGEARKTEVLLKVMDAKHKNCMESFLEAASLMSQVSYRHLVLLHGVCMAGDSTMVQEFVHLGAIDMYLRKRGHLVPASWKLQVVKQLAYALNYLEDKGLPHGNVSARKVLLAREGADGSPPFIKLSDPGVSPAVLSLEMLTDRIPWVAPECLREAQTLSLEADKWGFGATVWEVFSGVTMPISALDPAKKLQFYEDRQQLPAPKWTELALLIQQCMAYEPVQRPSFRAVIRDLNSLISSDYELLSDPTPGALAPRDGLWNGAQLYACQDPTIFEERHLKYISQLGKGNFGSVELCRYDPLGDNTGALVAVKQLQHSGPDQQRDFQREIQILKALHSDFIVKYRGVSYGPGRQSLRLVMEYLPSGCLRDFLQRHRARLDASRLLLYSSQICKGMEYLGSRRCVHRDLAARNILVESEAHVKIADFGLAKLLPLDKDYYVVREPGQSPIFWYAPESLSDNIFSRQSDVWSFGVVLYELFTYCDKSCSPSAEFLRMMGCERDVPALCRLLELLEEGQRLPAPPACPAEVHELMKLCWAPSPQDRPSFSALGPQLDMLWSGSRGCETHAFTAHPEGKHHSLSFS

[3] = target: CDK9/cyclin T1 (Homo sapiens) (UniProt O60563+P50750); test: CDK9/cyclin T1(h) Eurofins kinase panel; type: protein-complex assay; conditions: Compound concentration 1.0 uM
[4] = target: 5'-AMP-activated protein kinase catalytic subunit alpha-1 (Homo sapiens, UniProt Q13131); test: Eurofins kinase panel (PRKAA1); parameters: compound concentration 1 uM
[5] = target: RAC-gamma serine/threonine-protein kinase (Homo sapiens) (UniProt Q9Y243); test: PKBgamma (h) Eurofins kinase panel; conditions: Compound concentration 1.0 uM
[6] = target: Cyclin-dependent kinase 5/CDK5 activator 1 (Homo sapiens) (UniProt Q00535+Q15078); test: CDK5/p25(h) Eurofins kinase panel; type: protein-complex assay; conditions: Compound concentration 1.0 uM
[7] = target: Insulin-like growth factor 1 receptor (Homo sapiens) (UniProt P08069); test: IGF-1R(h) Eurofins kinase panel; conditions: Compound concentration 1.0 uM
[8] = target: Casein kinase I isoform gamma-1 (Homo sapiens) (UniProt Q9HCP0); test: CK1gamma1(h) Eurofins kinase panel; conditions: Compound concentration 1.0 uM
[9] = target: D(1A) dopamine receptor (Homo sapiens) (UniProt P21728); conditions: Compound concentration 10.0 uM
JJN-3 = test: JJN3 cell line Proliferation assay; type: functional, Homo sapiens; conditions: time 3 day
[10] = target: eIF-2-alpha kinase GCN2 (Homo sapiens) (UniProt Q9P2K8); test: GCN2(h) Eurofins kinase panel; conditions: Compound concentration 1.0 uM
[11] = target: Homeodomain-interacting protein kinase 2 (Homo sapiens) (UniProt Q9H2X6); test: HIPK2(h) Eurofins kinase panel; conditions: Compound concentration 1.0 uM
[12] = target: SRSF protein kinase 3 (Homo sapiens) (UniProt Q9UPE1); test: MSSK1(h) Eurofins kinase panel; conditions: Compound concentration 1.0 uM
[13] = target: 5'-AMP-activated protein kinase catalytic subunit alpha-2 (Homo sapiens, UniProt P54646); conditions: Compound concentration 1.0 uM
[14] = target: Mitogen-activated protein kinase kinase kinase 9 (Homo sapiens) (UniProt P80192); test: MLK1(h) Eurofins kinase panel; conditions: Compound concentration 1.0 uM
[15] = target: Tyrosine-protein kinase SYK (Homo sapiens) (UniProt P43405); test: Syk(h) Eurofins kinase panel; conditions: Compound concentration 1.0 uM
[16] = target: T2, Serine/threonine-protein kinase Nek2 (Homo sapiens) (UniProt P51955); test: NEK2(h) Eurofins kinase panel; conditions: Compound concentration 1.0 uM
T2 sequence (whole entry): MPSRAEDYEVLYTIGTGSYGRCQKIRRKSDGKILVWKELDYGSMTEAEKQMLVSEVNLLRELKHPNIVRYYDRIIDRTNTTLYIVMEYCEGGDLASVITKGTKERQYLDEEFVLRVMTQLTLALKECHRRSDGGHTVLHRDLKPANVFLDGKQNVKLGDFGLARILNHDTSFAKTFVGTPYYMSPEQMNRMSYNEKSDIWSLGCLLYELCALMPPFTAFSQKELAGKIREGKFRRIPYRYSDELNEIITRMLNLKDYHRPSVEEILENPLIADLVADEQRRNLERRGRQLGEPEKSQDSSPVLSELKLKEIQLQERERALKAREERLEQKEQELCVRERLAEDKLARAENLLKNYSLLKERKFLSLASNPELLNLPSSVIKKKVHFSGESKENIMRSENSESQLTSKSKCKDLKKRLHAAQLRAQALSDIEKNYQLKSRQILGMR

[17] = target: Tyrosine-protein kinase ABL2 (Homo sapiens) (UniProt P42684); test: Arg(h) Eurofins kinase panel; conditions: Compound concentration 1.0 uM
[18] = target: Ribosomal protein S6 kinase alpha-3 (Homo sapiens, UniProt P51812); conditions: Compound concentration 1.0 uM
[19] = target: Calcium/calmodulin-dependent protein kinase type 1G (Homo sapiens) (UniProt Q96NX5); test: CaMKIgamma(h) Eurofins kinase panel; conditions: Compound concentration 1.0 uM
[20] = target: T3, Mitogen-activated protein kinase 13 (Homo sapiens) (UniProt O15264); test: SAPK4(h) Eurofins kinase panel; conditions: Compound concentration 1.0 uM
T3 sequence (whole entry): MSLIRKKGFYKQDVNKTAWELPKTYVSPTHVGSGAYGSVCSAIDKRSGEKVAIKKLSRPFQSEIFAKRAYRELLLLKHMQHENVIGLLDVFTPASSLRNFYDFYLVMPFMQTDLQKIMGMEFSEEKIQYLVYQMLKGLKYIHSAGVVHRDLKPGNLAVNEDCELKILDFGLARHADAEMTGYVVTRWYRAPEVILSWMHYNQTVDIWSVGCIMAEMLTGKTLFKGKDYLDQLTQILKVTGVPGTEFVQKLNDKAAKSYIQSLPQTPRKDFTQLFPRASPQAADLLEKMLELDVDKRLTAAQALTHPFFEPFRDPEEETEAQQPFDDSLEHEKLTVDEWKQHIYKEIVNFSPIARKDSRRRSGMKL

Sequence of RAC-gamma serine/threonine-protein kinase (Homo sapiens) (Q9Y243 whole entry): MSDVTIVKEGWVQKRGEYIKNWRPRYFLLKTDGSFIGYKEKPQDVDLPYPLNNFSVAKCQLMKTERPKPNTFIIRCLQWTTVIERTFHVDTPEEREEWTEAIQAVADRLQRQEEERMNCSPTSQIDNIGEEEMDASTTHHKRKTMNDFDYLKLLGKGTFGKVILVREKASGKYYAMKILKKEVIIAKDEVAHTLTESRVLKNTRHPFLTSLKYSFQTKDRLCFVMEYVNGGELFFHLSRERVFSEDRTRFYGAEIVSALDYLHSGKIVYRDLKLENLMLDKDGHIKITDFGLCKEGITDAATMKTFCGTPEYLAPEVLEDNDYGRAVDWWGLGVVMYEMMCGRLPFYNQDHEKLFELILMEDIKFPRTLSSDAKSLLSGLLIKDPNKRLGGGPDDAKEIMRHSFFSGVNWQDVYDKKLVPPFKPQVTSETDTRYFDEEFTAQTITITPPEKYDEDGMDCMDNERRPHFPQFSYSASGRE
Sequence of Calcium/calmodulin-dependent protein kinase type 1G (Homo sapiens) (Q96NX5 whole entry): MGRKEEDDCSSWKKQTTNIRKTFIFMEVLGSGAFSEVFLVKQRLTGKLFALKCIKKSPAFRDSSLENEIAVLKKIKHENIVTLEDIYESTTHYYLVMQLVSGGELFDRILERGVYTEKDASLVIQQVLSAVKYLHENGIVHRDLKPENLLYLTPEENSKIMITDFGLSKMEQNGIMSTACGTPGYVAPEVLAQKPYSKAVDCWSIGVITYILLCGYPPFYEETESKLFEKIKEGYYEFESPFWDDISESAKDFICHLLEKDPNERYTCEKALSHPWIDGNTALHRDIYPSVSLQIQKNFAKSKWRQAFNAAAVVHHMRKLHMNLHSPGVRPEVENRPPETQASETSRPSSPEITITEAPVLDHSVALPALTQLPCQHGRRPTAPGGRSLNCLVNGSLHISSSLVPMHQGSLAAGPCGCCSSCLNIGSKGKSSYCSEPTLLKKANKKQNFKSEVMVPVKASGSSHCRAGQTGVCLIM
Sequence of D(1A) dopamine receptor (Homo sapiens) (P21728 whole entry): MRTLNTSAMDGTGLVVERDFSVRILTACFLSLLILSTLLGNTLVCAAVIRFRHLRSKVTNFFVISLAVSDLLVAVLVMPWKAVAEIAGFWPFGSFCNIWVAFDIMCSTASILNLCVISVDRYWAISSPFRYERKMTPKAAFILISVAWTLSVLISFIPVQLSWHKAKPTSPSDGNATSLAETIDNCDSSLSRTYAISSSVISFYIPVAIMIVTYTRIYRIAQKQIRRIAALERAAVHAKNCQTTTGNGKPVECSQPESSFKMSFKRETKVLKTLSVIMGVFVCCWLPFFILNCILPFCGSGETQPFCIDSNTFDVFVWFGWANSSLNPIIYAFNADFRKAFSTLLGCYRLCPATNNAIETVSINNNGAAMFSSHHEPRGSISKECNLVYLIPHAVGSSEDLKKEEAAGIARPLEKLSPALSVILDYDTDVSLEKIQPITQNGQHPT
Sequence of Macrophage-stimulating protein receptor (Homo sapiens) (Q04912 25-304 limits assumed): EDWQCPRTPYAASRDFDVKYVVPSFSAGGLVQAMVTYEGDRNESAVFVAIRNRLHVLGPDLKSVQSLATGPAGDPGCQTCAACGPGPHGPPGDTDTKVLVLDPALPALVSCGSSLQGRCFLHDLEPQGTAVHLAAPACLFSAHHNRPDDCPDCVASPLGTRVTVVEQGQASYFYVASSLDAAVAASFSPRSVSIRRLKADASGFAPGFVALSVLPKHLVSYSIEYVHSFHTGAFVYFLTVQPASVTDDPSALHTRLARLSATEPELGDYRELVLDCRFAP
Sequence of Macrophage-stimulating protein receptor (Homo sapiens) (Q04912 310-1400 limits assumed): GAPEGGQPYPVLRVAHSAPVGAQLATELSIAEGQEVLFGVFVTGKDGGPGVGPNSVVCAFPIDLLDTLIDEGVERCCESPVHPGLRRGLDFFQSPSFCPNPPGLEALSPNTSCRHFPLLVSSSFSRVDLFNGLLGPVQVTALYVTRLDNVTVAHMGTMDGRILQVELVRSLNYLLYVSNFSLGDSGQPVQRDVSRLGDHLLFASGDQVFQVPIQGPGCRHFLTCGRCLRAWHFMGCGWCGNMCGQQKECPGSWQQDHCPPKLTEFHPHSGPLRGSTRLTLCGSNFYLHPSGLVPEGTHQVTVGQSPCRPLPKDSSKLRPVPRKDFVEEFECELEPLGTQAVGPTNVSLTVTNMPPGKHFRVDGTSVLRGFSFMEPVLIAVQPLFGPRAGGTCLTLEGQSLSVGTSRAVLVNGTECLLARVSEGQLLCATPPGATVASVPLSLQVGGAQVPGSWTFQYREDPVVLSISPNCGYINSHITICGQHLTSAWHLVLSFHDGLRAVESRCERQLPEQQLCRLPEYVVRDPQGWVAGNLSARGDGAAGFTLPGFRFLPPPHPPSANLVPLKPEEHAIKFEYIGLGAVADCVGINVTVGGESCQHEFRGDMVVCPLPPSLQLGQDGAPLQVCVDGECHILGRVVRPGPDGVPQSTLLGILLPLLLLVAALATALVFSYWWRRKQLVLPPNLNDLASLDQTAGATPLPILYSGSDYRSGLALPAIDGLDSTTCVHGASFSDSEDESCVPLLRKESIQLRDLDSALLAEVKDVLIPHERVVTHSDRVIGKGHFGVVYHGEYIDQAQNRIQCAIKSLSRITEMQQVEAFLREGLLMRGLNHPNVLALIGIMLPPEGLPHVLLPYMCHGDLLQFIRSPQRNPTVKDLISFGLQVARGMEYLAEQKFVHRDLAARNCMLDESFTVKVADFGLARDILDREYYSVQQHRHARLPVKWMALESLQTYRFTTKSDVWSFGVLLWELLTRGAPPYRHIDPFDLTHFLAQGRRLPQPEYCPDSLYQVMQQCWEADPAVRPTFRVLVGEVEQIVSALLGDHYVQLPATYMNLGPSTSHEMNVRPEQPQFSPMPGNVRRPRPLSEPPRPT
Sequence of 5'-AMP-activated protein kinase catalytic subunit alpha-1 (Q13131 whole entry): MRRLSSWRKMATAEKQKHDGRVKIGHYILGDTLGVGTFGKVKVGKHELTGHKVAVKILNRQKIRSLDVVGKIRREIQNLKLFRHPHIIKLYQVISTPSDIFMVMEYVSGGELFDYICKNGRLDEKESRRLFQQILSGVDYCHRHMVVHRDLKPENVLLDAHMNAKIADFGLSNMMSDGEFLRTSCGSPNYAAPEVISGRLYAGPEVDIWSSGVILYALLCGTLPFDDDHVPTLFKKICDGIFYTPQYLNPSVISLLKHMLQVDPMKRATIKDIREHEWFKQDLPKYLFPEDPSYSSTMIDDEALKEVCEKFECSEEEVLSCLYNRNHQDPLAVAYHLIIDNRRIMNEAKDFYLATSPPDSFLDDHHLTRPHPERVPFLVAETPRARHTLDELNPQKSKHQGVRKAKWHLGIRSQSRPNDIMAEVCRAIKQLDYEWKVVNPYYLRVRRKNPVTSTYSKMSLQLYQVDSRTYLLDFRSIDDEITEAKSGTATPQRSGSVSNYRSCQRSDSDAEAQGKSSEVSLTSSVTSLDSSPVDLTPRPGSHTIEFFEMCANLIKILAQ
Sequence of Homeodomain-interacting protein kinase 2 (Homo sapiens) (Q9H2X6 whole entry, looked up): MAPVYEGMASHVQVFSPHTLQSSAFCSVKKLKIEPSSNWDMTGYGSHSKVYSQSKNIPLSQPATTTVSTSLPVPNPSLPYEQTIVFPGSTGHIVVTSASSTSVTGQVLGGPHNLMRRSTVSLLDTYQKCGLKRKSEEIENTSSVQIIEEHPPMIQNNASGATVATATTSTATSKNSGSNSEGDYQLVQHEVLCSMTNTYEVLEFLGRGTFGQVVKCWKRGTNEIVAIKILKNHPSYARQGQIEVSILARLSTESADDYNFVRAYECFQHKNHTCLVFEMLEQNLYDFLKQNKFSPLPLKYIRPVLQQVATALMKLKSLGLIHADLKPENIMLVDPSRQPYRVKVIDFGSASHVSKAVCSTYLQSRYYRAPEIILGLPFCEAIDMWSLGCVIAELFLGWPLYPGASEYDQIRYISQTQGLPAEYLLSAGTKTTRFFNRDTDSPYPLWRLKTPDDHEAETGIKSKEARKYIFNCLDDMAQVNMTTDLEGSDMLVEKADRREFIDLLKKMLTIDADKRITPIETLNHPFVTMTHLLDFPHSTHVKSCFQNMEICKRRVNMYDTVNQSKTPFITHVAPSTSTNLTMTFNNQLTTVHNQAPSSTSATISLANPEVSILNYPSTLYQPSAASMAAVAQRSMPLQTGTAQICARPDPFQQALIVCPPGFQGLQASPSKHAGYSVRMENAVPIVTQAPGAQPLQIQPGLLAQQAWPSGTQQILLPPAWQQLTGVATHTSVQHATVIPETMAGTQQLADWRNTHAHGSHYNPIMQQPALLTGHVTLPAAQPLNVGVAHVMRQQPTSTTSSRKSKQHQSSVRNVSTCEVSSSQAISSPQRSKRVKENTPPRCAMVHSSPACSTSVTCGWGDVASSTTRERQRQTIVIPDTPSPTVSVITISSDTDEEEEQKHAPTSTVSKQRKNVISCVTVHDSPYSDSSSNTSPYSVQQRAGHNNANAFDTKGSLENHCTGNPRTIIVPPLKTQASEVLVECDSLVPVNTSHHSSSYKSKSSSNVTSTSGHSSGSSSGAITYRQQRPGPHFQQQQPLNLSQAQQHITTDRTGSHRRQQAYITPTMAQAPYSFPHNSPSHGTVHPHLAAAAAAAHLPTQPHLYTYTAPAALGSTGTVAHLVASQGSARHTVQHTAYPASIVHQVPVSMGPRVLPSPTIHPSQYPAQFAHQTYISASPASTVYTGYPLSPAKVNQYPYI
Sequence of Casein kinase I isoform gamma-1 (Homo sapiens) (Q9HCP0 whole entry, looked up, canonical isoform): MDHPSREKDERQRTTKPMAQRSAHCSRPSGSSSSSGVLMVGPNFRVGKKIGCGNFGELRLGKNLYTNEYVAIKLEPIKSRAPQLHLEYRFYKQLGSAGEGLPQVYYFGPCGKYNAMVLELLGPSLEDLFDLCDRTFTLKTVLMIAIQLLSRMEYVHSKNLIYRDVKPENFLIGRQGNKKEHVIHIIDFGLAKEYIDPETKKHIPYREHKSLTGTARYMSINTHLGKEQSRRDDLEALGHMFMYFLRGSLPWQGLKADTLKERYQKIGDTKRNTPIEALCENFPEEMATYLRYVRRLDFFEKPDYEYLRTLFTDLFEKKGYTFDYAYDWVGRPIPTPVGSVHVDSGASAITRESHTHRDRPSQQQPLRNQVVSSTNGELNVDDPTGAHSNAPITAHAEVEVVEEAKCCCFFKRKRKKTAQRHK

## CCc1ccccc1C(=O)Nc1n[nH]c2c(C)c(F)c(C3C(C#N)=C(C)N(C)C(C)=C3C#N)cc12 [BAY-3827]
[1]
  % residual kinase activity: 102%
[2]
  % residual kinase activity: 93%
[3]
  % residual kinase activity: 91%
[4]
  IC50: 0.007 µM (active)
[5]
  % residual kinase activity: 78%
[6]
  % residual kinase activity: 98%
[7]
  % residual kinase activity: 110%
[8]
  % residual kinase activity: 101%
[9]
  inhibition: 67.4%
JJN-3
  Cell Proliferation IC50: >20 µM
[10]
  % residual kinase activity: 100%
[11]
  % residual kinase activity: 100%
[12]
  % residual kinase activity: 39%
[13]
  % residual kinase activity: 0%
[14]
  % residual kinase activity: 93%
[15]
  % residual kinase activity: 106%
[16]
  % residual kinase activity: 91%
[17]
  % residual kinase activity: 101%
[18]
  % residual kinase activity: 0%
[19]
  % residual kinase activity: 92%
[20]
  % residual kinase activity: 111%
